In patent US8546588B2, “Substituted hydroxamic acids and uses thereof” (Millennium Pharmaceuticals, Inc., priority 2010, dated 2013):

Biological target: T1, purified human HDAC6 (Homo sapiens, UniProt Q9UBN7)
T1 construct: purchased BPS Bioscience 5006
T1 sequence (Q9UBN7 1-1215): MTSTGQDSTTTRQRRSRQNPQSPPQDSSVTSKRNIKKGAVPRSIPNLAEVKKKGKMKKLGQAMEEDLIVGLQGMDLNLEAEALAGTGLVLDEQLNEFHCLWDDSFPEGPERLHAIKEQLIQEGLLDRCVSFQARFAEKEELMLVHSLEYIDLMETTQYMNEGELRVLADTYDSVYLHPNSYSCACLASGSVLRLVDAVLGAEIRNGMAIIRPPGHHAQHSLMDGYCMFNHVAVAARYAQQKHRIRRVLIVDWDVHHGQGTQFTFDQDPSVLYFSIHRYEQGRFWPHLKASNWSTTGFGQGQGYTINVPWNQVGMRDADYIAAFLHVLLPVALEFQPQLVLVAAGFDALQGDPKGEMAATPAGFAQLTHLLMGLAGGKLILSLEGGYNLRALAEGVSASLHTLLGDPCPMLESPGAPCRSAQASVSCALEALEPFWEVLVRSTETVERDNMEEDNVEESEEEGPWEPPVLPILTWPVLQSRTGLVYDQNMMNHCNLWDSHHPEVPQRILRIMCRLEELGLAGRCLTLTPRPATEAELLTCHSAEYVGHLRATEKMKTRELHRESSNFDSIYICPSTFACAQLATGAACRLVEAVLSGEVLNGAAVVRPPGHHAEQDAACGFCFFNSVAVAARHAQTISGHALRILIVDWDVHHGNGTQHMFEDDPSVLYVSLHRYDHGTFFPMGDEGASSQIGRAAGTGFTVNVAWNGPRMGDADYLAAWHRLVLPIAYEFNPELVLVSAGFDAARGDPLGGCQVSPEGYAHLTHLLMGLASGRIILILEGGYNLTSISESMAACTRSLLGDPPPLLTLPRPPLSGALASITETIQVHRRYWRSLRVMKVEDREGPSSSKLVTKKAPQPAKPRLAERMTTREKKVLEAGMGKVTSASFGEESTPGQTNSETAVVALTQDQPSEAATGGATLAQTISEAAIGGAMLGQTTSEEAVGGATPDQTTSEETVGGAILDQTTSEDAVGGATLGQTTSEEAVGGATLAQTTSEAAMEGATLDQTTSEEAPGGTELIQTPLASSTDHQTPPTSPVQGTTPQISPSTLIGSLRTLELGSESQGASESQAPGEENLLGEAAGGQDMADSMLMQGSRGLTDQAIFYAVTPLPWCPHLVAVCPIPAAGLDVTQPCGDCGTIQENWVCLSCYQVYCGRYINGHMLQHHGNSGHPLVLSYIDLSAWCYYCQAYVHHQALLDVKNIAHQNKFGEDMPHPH
Assay: HDAC6 Enzyme Assay
Assay type: biochemical
Settings: substrate Ac-Arg-Gly-Lys(Ac)-AMC peptide, 1 hour at 30° C.
Summary of the method: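 Purified human HDAC6 incubated 1 h at 30 °C with Ac-Arg-Gly-Lys(Ac)-AMC peptide and compound; reaction stopped with trichostatin A, then trypsin releases AMC, read by fluorescence (Ex 340/Em 460 nm). IC50 from concentration-response curves relative to DMSO controls.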

Row | Compound | IC50 [µM]
1 | Cc1c(C(=O)N[C@H](C)c2ccc(C(=O)NO)s2)oc2ccccc12 [Compound I-15, N-((1R)-1-{5-[(hydroxyamino)carbonyl]-2-thienyl}ethyl)-3-methyl-1-benzofuran-2-carboxamide] | < 0.1
2 | C[C@H](NC(=O)C1(C)CCCCC1)c1ncc(C(=O)NO)s1 [Compound I-171, N-hydroxy-2-((1S)-1-{[(1-methylcyclohexyl)carbonyl]amino}ethyl)-1,3-thiazole-5-carboxamide] | > 0.5
